# Data published in PMC8864717 (Chemical Science, 2021).
# Where two headings read alike, the source gives them in different places.
# Experiments:
# [1] = cited from earlier work
# SARS-CoV-2 [2] = format: cell-based; details: CBS 1000 μM, NAC 1000 μM, CBS 1000 μM + 3NAC 3000 μM, non-treated 64.5%
# SARS-CoV-2 PL^pro = SARS-CoV-2 PL^pro (Severe acute respiratory syndrome coronavirus 2, UniProt P0DTD1); format: biochemical; details: at comparable concentrations
# SARS-CoV-2 [3] = experiment: Viral load reduction assay, SARS-CoV-2 in Vero E6 cells; format: cell-based; details: Vero E6, up to 2000 μM
# SARS-CoV-2 M^pro = SARS-CoV-2 M^pro (Severe acute respiratory syndrome coronavirus 2, UniProt P0DTD1); format: biochemical; details: at comparable concentrations
# SARS-CoV-2 [4] = format: in vivo, golden Syrian hamster
# [5] = cited from earlier work; remark: listed apart in the source
# [6] = pH 9.2, with NAC
# Caco-2 cell monolayer = details: CBS 150 μM, without or with 10NAC 1.5 mM
# [7] = SD rats
# ACE2 = ACE2 (Homo sapiens, UniProt Q9BYF1); experiment: ACE2 activity inhibition assay; format: biochemical
# ACE2, sequence (Q9BYF1 18-805): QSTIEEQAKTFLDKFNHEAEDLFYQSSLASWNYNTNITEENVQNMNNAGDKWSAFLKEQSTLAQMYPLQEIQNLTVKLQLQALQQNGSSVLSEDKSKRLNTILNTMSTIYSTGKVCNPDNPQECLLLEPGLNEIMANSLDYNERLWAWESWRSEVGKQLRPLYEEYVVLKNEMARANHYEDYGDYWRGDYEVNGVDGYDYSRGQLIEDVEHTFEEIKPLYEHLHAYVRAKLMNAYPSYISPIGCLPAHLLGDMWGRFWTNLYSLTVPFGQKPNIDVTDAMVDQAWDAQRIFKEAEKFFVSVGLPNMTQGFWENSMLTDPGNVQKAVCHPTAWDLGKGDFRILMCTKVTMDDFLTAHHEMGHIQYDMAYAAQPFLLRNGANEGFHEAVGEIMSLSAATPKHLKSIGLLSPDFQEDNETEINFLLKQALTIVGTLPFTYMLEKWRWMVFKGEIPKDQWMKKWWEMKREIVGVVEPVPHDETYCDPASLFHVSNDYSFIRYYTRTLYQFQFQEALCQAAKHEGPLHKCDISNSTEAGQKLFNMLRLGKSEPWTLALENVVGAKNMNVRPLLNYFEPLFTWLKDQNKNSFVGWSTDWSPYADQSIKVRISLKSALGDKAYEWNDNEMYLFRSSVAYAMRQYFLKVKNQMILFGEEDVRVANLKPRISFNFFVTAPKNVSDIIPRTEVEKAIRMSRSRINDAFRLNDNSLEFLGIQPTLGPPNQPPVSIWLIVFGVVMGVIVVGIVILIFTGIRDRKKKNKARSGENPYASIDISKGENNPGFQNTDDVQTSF
# [8] = Ex vivo everted gut sac model; format: in vitro ADME; details: rat duodenum, within 60 min, CBS 200 μM, pH 7.4
# [9] = Blood bismuth concentration after oral administration in mice; format: in vivo; details: Balb/c mice, oral CBS 150 mg kg^-1 (NAC 180 or 610 mg kg^-1)
# SARS-CoV-2 [10] = details: read-out: EC50, SARS-CoV-2; cited from earlier work
# [11] = single oral dose CBS 150 mg/kg, NAC 610 mg/kg, n = 5
compound,measurement,setting,value
"O=[N+]([O-])[O-].O=[N+]([O-])[O-].O=[N+]([O-])[O-].O=[N+]([O-])[O-].[Bi+3].[Bi+3].[Bi+3].[Bi+3].[Bi+3].[O-2].[OH-].[OH-].[OH-].[OH-].[OH-].[OH-].[OH-].[OH-].[OH-] [BSN, bismuth subnitrate]",absorption of bismuth in the rat small intestine,[1],lower than 1%
"CC(=O)N[C@@H](CS)C(=O)O [NAC, N-acetyl-L-cysteine]",viral NP antigen in infected Vero E6 cells,SARS-CoV-2 [2],59.75%
same,inhibitory activity on SARS-CoV-2 PL^pro,SARS-CoV-2 PL^pro,negligible inhibitory activity
same,"anti-SARS-CoV-2 activity of NAC alone, virus copies in supernatant",SARS-CoV-2 [3],negligible anti-SARS-CoV-2 activity
same,inhibitory activity on SARS-CoV-2 M^pro,SARS-CoV-2 M^pro,negligible inhibitory activity
same,SARS-CoV-2-NP antigen signal in alveolar tissue of hamster lungs,"SARS-CoV-2 [4]; hamster, in vivo, po",85.67(±11.59) NP^+ cells per view
same,lung pathology,"SARS-CoV-2 [4]; hamster, in vivo, po",partially relieve lung pathology
same,lung viral load versus vehicle group,"SARS-CoV-2 [4]; oral, CBS 300 mg kg^-1 or NAC 370 mg kg^-1, day -2 to 1, […]",no statistically significant difference
"CNC(=C[N+](=O)[O-])NCCSCc1ccc(CN(C)C)o1.O=C([O-])CC(O)(CC(=O)[O-])C(=O)[O-].[Bi+3] [RBC, ranitidine bismuth citrate]","cumulative permeated bismuth, PAMPA","iso-pH 1.2, in the presence of 10 mol eq. NAC",19.77 ng cm^−2
same,"cumulative permeated bismuth, PAMPA","iso-pH 1.2, without NAC",15.24 ng cm^−2
colloidal bismuth subcitrate [CBS],viral NP antigen in infected Vero E6 cells,SARS-CoV-2 [2],37.25%
same,solubility in water,[5]; pH 3,about 1 mg mL^−1
same,solubility in water,[5]; pH 7,> 70 mg/mL
same,hydrolysis of CBS at pH 9.2 in the presence of NAC,[6],prevent hydrolysis
same,cellular accumulation of bismuth in Caco-2 monolayer,Caco-2 cell monolayer,0.33(±0.02) %
same,apparent permeability coefficient (Papp) through Caco-2 monolayer,Caco-2 cell monolayer; pH 7.4,1.73(±0.02) × 10^−7 cm s^−1
same,bismuth accumulation in the kidney,[7]; 24 hour after oral dose,6839.76(±1652.30) ng per tissue
same,bismuth accumulation in the lung,[7]; 24 hour after oral dose,552.15(±104.97) ng per tissue
same,first peak value of blood bismuth level,"[7]; oral CBS 150 mg kg^-1, at around 0.5 h",277.69 µg/L
same,AUC0→12 h,[7]; [11],1316(±474.00) h μg L^−1
same,Cmax (blood bismuth),[7]; [11],447.06(±132.39) μg L^−1
same,absorption of bismuth in the rat small intestine,[1],lower than 1%
same,inhibition of ACE2 activity,ACE2,barely displayed anti-ACE2 potency
same,SARS-CoV-2-NP antigen signal in alveolar tissue of hamster lungs,"SARS-CoV-2 [4]; hamster, in vivo, po",68.00(±6.08) NP^+ cells per view
same,adverse clinical signs and symptoms of infected hamsters,"SARS-CoV-2 [4]; oral treatment, end of experimental period",mildly mitigated
same,"cumulative bismuth permeated, everted sac model",[8],14.68(±4.12) ng cm^−2
same,"cumulative permeated bismuth, PAMPA","iso-pH 1.2, without NAC",16.95 ng cm^−2
same,blood bismuth concentration,[9]; 0.5 hour,225.75(±86.05) μg L^−1
same,blood bismuth concentration,[9]; 1 hour,87.27(±21.46) μg L^−1
same,EC50,SARS-CoV-2 [10],4.6 µM
